17 compounds from patent US20240158368A1, “Pyrrolidine Main Protease Inhibitors as Antiviral Agents” (AbbVie Inc., priority 2022, published 2024) can be followed below.

The structures appear in SMILES notation. Read-outs that look alike come from different tables or passages of the source. Where only a bound is given, the exact number is not on record here.

For orientation: EC50 means the midpoint of the concentration-response curve. What is called Papp is the rate of passage across a membrane or cell layer, normalised by area and donor concentration. The low end stands for slow passage, the high end for fast passage. As a reminder, the CLint scaled is the capacity of the preparation to metabolise the compound, expressed as a volume cleared per time.

Series [1] addresses SARS-CoV-2 Mpro (Severe acute respiratory syndrome coronavirus 2 (2019-nCoV) (SARS-CoV-2), UniProt P0DTD1). It counts as biochemical.
Series [2] has as its target SARS-CoV-1 Mpro (Severe acute respiratory syndrome coronavirus (SARS-CoV), UniProt P0C6X7). It counts as biochemical.
Series [3] addresses MERS Mpro (Middle East respiratory syndrome-related coronavirus (isolate United Kingdom/H123990006/2012) (MERS-CoV) (Betacoronavirus England 1), UniProt K9N7C7). Description: biochemical.
Series [4] addresses OC43 Mpro (Human coronavirus OC43 (HCoV-OC43), UniProt P0C6X6). It counts as biochemical.
Series [5] has as its target 229E Mpro (Human coronavirus 229E (HCoV-229E), UniProt P0C6X1). Type of series: biochemical.
The subject of series [6] is SARS-CoV-2 (strain USA-WA1/2020). Put plainly: microbe, parasite or virus in culture. It counts as cell-based.
A short description of series [7]: in vitro. To be noted: PAMPA.
The nature of series [8]: in vitro. To be noted: rat, microsomes, pH 7.4.
The nature of series [9]: in vitro. To be noted: human, microsomes, pH 7.4.
Series [10] relates to 229E virus. Description: organism not typed. Type of series: cell-based. Particulars: Huh-7, read-out: Antiviral 229E EC50 (μM).
In series [11] the test system is OC43 virus. Put plainly: microbe, parasite or virus in culture. Type of series: cell-based. Particulars: Betacoronavirus 1, OC43, Huh-7, read-out: Antiviral OC43 EC50 (μM).
Where [12] appears, read: Severe acute respiratory syndrome coronavirus 2, HeLa-ACE2 cells, read-out: Antiviral CoV-2 EC50.

OC43 Mpro, sequence (P0C6X6 3247-3549 limits assumed): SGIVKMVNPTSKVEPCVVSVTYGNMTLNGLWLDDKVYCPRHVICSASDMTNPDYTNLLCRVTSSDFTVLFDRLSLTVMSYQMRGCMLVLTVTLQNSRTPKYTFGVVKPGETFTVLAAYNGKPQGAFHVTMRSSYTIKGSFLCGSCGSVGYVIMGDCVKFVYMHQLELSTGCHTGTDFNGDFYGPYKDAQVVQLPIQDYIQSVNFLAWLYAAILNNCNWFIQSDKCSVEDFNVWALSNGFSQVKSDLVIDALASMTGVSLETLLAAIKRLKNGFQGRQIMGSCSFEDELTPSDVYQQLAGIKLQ
MERS Mpro, sequence (K9N7C7 3248-3553 limits assumed): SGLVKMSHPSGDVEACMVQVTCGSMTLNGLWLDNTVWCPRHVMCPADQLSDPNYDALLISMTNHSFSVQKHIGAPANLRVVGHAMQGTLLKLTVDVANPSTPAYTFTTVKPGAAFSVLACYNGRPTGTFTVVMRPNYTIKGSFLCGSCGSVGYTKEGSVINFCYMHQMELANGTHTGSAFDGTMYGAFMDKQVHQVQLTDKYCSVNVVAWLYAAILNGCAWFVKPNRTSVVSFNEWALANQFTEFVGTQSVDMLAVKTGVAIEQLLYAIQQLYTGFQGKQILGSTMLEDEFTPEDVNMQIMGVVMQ
229E Mpro, sequence (P0C6X1 2966-3267 limits assumed): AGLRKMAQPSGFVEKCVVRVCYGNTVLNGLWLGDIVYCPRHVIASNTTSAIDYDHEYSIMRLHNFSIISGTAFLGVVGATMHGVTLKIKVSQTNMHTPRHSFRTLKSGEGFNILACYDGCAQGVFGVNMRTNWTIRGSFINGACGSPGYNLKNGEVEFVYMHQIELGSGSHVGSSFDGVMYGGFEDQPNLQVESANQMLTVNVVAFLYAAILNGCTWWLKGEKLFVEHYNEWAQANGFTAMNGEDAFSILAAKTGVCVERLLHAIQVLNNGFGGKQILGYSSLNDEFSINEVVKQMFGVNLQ

As for `Cc1cc(C(=O)N[C@@H]2CCN(c3c(C(=O)N4CCOCC4)cc(Br)cc3C(F)(F)F)C2)c(F)c(=O)[nH]1` [Compound 3, (R)—N-(1-(4-bromo-2-(morpholine-4-carbonyl)-6-(trifluoromethyl)phenyl)pyrrolidin-3-yl)-3-fluoro-6-methyl-2-oxo-1,2-dihydropyridine-4-carboxamide], the concentration giving a half-maximal response (EC50) was found to be 0.63 nM in series [1]; 0.97 nM in series [2]; 1.23 nM in series [3]; 3.88 nM in [4]; 12.9 nM in [5]; 0.0203 µM in [6] (setting [12]). Further, in series [7], the apparent permeability (Papp) worked out at 5.84 ×10⁻⁶ cm/s. Also, the CLint scaled was under 60 mL/min/kg in series [8] and under 36.7 mL/min/kg in [9].
As for `C[C@@H]1C[C@@H](NC(=O)c2cc(=O)[nH]c3c(F)cccc23)CN1c1c(C(=O)N2CCOCC2)cc(C#N)cc1C(F)(F)F` [Compound 30], the half-maximal effective concentration (EC50) is 0.42 nM in [1]; 1.04 nM in series [3]; 0.58 nM in series [4]; 1.25 nM in series [5]; 0.011 µM in series [10]; 0.029 µM in series [11]. Also, in [7], the apparent permeability (Papp) stood at 13.3 ×10⁻⁶ cm/s. For the same compound, the CLint scaled is 303 mL/min/kg in series [8] and 61.7 mL/min/kg in series [9].
Consider `C[C@@H]1C[C@@H](NC(=O)c2cc(=O)[nH]c3c(F)c(F)ccc23)CN1c1c(C(=O)N2CCOCC2)cc(C#N)cc1C(F)(F)F` [Compound 31], for which the EC50 in series [1] stood at 0.5 nM; in series [3], 1.94 nM; in [4] it was 1.77 nM; in series [5], 2.81 nM; in series [6] (setting [12]) it was 0.0088 µM; in series [10], 0.073 µM. Also, the EC50 in series [11] came to 0.141 µM. The apparent permeability coefficient (Papp) in [7] stood at 11.8 ×10⁻⁶ cm/s. Besides, the intrinsic clearance (CLint scaled) was 457 mL/min/kg in [8] and 91.7 mL/min/kg in series [9].
Take `CN1CCN(C(=O)c2cc(Cl)cc(C(F)(F)F)c2N2CC[C@@H](NC(=O)c3cc(=O)[nH]c4c(F)cccc34)C2)CC1` [Compound 37]: the EC50 was found to be 0.63 nM in [1]; 1.68 nM in [2]; 1.22 nM in series [3]; 1 nM in series [4]; 2.53 nM in series [5]; 0.0288 µM in series [6] (setting [12]). In addition, in series [7], the apparent permeability coefficient (Papp) was found to be 6.23 ×10⁻⁶ cm/s. The values for the CLint scaled in [8] and in [9] were 423 mL/min/kg and 150 mL/min/kg, respectively.
`O=C(N[C@@H]1CCN(c2c(C(=O)N3CCOCC3)cc(F)cc2C(F)(F)F)C1)c1cc(=O)[nH]c2c(F)cc(F)cc12` [Compound 38]: the EC50 in [1] stood at 1.84 nM; in [3], 2.39 nM; in [4] it was 9.11 nM; in series [5], 5.9 nM; in series [10] it was 0.142 µM; in [11], 0.327 µM. This compound also gave an apparent permeability coefficient (Papp) in series [7] of 14.5 ×10⁻⁶ cm/s. Moreover, the CLint scaled in series [8] was 625 mL/min/kg; in series [9] it was 173 mL/min/kg.
As for `N#Cc1cc(C(=O)N2CCOCC2)c(N2CC[C@@H](NC(=O)c3c(F)c(=O)[nH]c4c(F)cccc34)C2)c(C(F)F)c1` [Compound 39], the concentration giving a half-maximal response (EC50) in series [1] is 0.42 nM; in series [2], 2.56 nM; in series [3] it was 1.12 nM; in [4] it was 1.05 nM; in series [5], 3.45 nM; in [6] (setting [12]) it was 0.0189 µM. Moreover, in [7], the Papp was 4.71 ×10⁻⁶ cm/s. Further, the intrinsic metabolic clearance (CLint scaled) in series [8] is under 41.7 mL/min/kg; in series [9] it was under 25 mL/min/kg.
For the compound `Cc1cc(C(=O)N2CCOCC2)c(N2CC[C@@H](NC(=O)c3cc(=O)[nH]c4c(F)cccc34)C2)c(C2CC2)c1` [Compound 45], the EC50 in series [1] was 0.42 nM; in series [3] it was 0.7 nM; in [4] it was 0.51 nM; in series [5], 1.52 nM; in series [6] (setting [12]), 0.0186 µM; in series [10] it was 0.0561 µM. Also, the 50% effective concentration (EC50) in series [11] is under 0.03 µM. In addition, in series [7], the apparent permeability (Papp) was found to be 14.7 ×10⁻⁶ cm/s. Besides, the CLint scaled was 942 mL/min/kg in series [8] and 352 mL/min/kg in [9].
Take `O=C(N[C@@H]1CCN(c2c(C(=O)N3CCOCC3)cc(F)cc2C2CC2)C1)c1cc(=O)[nH]c2c(F)cccc12` [Compound 46]: the half-maximal effective concentration (EC50) is 0.47 nM in series [1]; 1.75 nM in series [3]; 0.81 nM in series [4]; 2.76 nM in series [5]; 0.0209 µM in series [6] (setting [12]); 0.073 µM in series [10]. In addition, in series [11], the half-maximal effective concentration (EC50) stood at 0.049 µM. Further, the apparent permeability (Papp) in series [7] was 15.2 ×10⁻⁶ cm/s. Further, the intrinsic metabolic clearance (CLint scaled) was 897 mL/min/kg in series [8] and 53.3 mL/min/kg in [9].
Regarding `O=C(N[C@@H]1CCN(c2c(C(=O)N3CCOCC3)cc(Cl)cc2C(F)(F)F)C1)c1c(F)c(=O)[nH]c2c(F)cccc12` [Compound 55], the EC50 in series [1] turned out to be 0.42 nM; in [2] it was 0.56 nM; in series [3], 0.84 nM; in series [4] it was 0.42 nM; in series [5], 1.74 nM; in series [6] (setting [12]), 0.0046 µM. This compound came in with a Papp in series [7] of 18.6 ×10⁻⁶ cm/s. In addition, the results for the intrinsic clearance (CLint scaled) in series [8] and in series [9] were 318 mL/min/kg and 157 mL/min/kg, respectively.
Consider `COc1cc(F)cc2[nH]c(=O)cc(C(=O)N[C@@H]3CCN(c4c(C(=O)N5CCOCC5)cc(Br)cc4C(F)(F)F)C3)c12` [Compound 57], for which the EC50 in series [1] came to 0.42 nM; in series [3], 0.53 nM; in series [4], 0.42 nM; in [5] it was 0.88 nM; in series [10], 0.083 µM; in [11], 0.095 µM. The compound further displayed an apparent permeability (Papp) in series [7] of 4.09 ×10⁻⁶ cm/s. The CLint scaled in series [8] was 437 mL/min/kg; in series [9], 125 mL/min/kg.
For `Cc1cc(C(=O)N2CCOCC2)c(N2CC[C@@H](NC(=O)c3cc(C)[nH]c(=O)c3F)C2)c(C2CC2)c1` [Compound 60], the EC50 in series [1] is 0.48 nM; in [2] it was 0.74 nM; in series [3] it was 1.4 nM; in series [4] it was 1.22 nM; in series [5] it was 5.14 nM; in series [6] (setting [12]), 0.18 µM. This compound gave a Papp in series [7] of 2.95 ×10⁻⁶ cm/s. Also, the CLint scaled in series [9] is 66.7 mL/min/kg.
`CN1CCN(C(=O)c2cc(Br)cc(C(F)(F)F)c2N2CC[C@@H](NC(=O)c3cc(=O)[nH]c4c(F)cccc34)C2)CC1` [Compound 63]: the EC50 in series [1] is 0.56 nM; in [2], 1.27 nM; in series [3] it was 1.06 nM; in [4] it was 0.91 nM; in series [5], 1.99 nM; in series [6] (setting [12]) it was 0.0127 µM. In series [7], this compound returned an apparent permeability (Papp) of 5.6 ×10⁻⁶ cm/s. Moreover, the intrinsic metabolic clearance (CLint scaled) in series [8] is 722 mL/min/kg; in series [9], 357 mL/min/kg.
With `O=C(N[C@@H]1CCN(c2c(C(=O)N3CC4CC(C3)O4)cc(Br)cc2C(F)(F)F)C1)c1cc(=O)[nH]c2c(F)cccc12` [Compound 65], the EC50 in series [1] amounted to 0.42 nM; in [2], 1.86 nM; in series [3], 1.54 nM; in series [4] it was 1.29 nM; in series [5], 2.76 nM; in series [6] (Severe acute respiratory syndrome coronavirus 2, HeLa-ACE2, read-out: Antiviral CoV-2 EC50 (μM)), 0.0092 µM. Further, the Papp in [7] turned out to be 16 ×10⁻⁶ cm/s. Also, the intrinsic metabolic clearance (CLint scaled) in series [8] was 258 mL/min/kg; in series [9], 93.3 mL/min/kg.
For `O=C(N[C@@H]1CCN(c2c(C(=O)N3CC4(COC4)C3)cc(Br)cc2C(F)(F)F)C1)c1cc(=O)[nH]c2c(F)cccc12` [Compound 73], the EC50 in series [1] is 0.53 nM; in [2], 3.84 nM; in series [3] it was 1.69 nM; in series [4], 1.13 nM; in [5], 5.79 nM; in [6] (setting [12]), 0.0123 µM. Moreover, the Papp in [7] turned out to be 11.7 ×10⁻⁶ cm/s. Besides, the intrinsic metabolic clearance (CLint scaled) in [8] is 327 mL/min/kg; in series [9], 117 mL/min/kg.
With `Cc1cc(C(=O)N2CCOCC2)c(N2C[C@H](NC(=O)c3cc(=O)[nH]c4c(F)c(F)ccc34)CC2=O)c(C2CC2)c1` [Compound 75], the concentration giving a half-maximal response (EC50) is 0.63 nM in [1]; 0.72 nM in series [2]; 1.72 nM in series [3]; 2.25 nM in series [4]; 6.11 nM in [5]; 0.0231 µM in series [6] (setting [12]). Also, the Papp in series [7] worked out at 2.46 ×10⁻⁶ cm/s. The CLint scaled in series [8] was under 55 mL/min/kg; in series [9], under 33.3 mL/min/kg.
In the case of `COc1cccc2[nH]c(=O)cc(C(=O)N[C@@H]3CCN(c4c(C5CC5)ccc(F)c4C(=O)N4CCOCC4)C3)c12` [Compound 78], the EC50 in [1] is 1.42 nM; in series [3], 2.31 nM; in series [4], 1.45 nM; in series [5] it was 1.99 nM; in [6] (setting [12]), 0.46 µM; in series [10], 0.0481 µM. Besides, the EC50 in [11] stood at 0.0978 µM. For the same compound, the Papp in series [7] turned out to be 2.46 ×10⁻⁶ cm/s. The intrinsic clearance (CLint scaled) in series [8] was 418 mL/min/kg; in series [9], 188 mL/min/kg.
In the case of `COc1cccc2[nH]c(=O)cc(C(=O)N[C@@H]3CCN(c4c(C(=O)N5CCOCC5)cc(F)cc4C4CC4)C3)c12` [Compound 79], the EC50 worked out at 0.42 nM in series [1]; 1.51 nM in series [3]; 0.76 nM in [4]; 2.42 nM in [5]; 0.0385 µM in [6] (setting [12]); 0.0284 µM in series [10]. For the same compound, the 50% effective concentration (EC50) in series [11] was 0.02 µM. Moreover, the Papp in series [7] was determined as 2.98 ×10⁻⁶ cm/s. For the same compound, the CLint scaled in series [8] is 235 mL/min/kg; in [9], 31.7 mL/min/kg.
